{"source": "patent US5824679A", "about": "“Phosphanoxides--preparation and use” (Boehringer Mannheim GmbH, priority 1994, dated 1998)", "key": {"horse thrombin": {"test_system": "horse thrombin", "assay": "Thrombin time (clotting of human citrate plasma on addition of thrombin reagent, ball coagulometer)", "assay_type": "biochemical, human plasma; horse thrombin", "details": "37° C., difference to control (ca. 24 sec); for TT0.5 (thrombin time, difference to the control): 0.5 μM in human plasma; for TT5 (thrombin time, difference to the control): 5 μM in human plasma", "description": "A conventional test in clinical coagulation diagnostics is the thrombin time. This parameter measures the action of thrombin on fibrinogen and the formation of clots. Inhibitors of thrombin result in an extended thrombin time.\nIn order to obtain plasma 9 parts of fresh blood from healthy donors was mixed with one part of sodium citrate solution (0.11 mol/l) and it was centrifuged for 10 minutes at room temperature at ca. 3000 r.p.m. The plasma was removed by pipette and can be stored at room temperature for ca. 8 hours.\n200 μl citrate plasma was incubated for 2 minutes at 37° C. in a ball coagulometer (KC10 from the Amelung Company). 10 μl dimethylsulfoxide (DMSO) or a solution of the active substance in DMSO was added to 190 μl pre-heated thrombin reagent (Boehringer Mannheim GmbH; contains ca. 3 U/ml horse thrombin and 0.0125M Ca^++). On addition of 200 μl of this solution to the plasma a stopwatch was started and the time at which coagulation starts was determined.\nThe measured thrombin times in seconds are given in the following table as a difference to the control. The concentrations of the active substances in human plasma were 5 μM (TT5) and 0.5 μM (TT0.5)."}, "human α thrombin": {"target": "T1, human α thrombin (Homo sapiens, UniProt P00734)", "T1 construct": "human α thrombin; purchased Sigma", "assay": "Thrombin inhibition, kinetic measurement with substrate H-(D)-Phe-Pro-Arg-pNA", "assay_type": "biochemical", "details": "0.1M phosphate buffer, 0.2M sodium chloride, 0.5% polyethylene glycol 6000, pH=7.5, 25° C.", "description": "The kinetic measurements were carried out in 0.1M phosphate buffer that contained 0.2M sodium chloride and 0.5% polyethylene glycol 6000 at a pH=7.5 and 25° C. with the substrate H-(D)-Phe-Pro-Arg-pNA; Kabi and human α thrombin (Sigma, specific activity=2150 NIH-units/mg) in polystyrene semi-microcuvettes in a total volume of 1 ml.\nIn a preliminary test each active substance was determined as to whether it inhibits thrombin rapidly or slowly. For this the reaction was firstly started by adding 0.03 NIH units thrombin to a 100 μM solution of the substrate and the active substance. In a second experiment, substrate was added to a solution of thrombin and the active substance which had been incubated for 5 minutes. The increase in the concentration of p-nitroaniline with time was monitored spectroscopically (UV-VIS spectrophotometer Lambda-2 from the Perkin-Elmer Company) at 405 nm for 12 min.\nSince the measured curves obtained in both experiments were linear and parallel, the active substances of the following table are rapid thrombin inhibitors.\nThe inhibition constants Ki were then determined as follows. The substrate was used at concentrations of 100 μM, 50 μM, 30 μM, 20 μM and at each substrate concentration a measurement was carried out without inhibitor and three measurements were carried out in the presence of various concentrations of the inhibitors listed in the following table. The reactions were started by adding thrombin. The increase in absorbance at 405 nm due to the formation of p-nitroaniline was monitored over a time period of 12 minutes. Measurement points (time versus absorbance) were transferred to a PC at intervals of 20 seconds. The rates VO (change in absorbance per second; measurements without inhibitor) and Vi (measurements with inhibitor) were determined by linear regression. Only that part of the measurement was used in which the substrate concentration had decreased by less than 15%. Km ' and Vmax were determined from a measurement series (constant inhibitor concentration, variable substrate concentrations) by a non-linear fit to the equation [formula]\nFinally Ki was calculated from the entire series of measurements by a non-linear fit to the equation [formula]\nThe Michaelis constant Km was 3.8±2 μm in all measurements.\nThe inhibition constants Ki of the active substances are stated in the following table in units of μM."}}, "data": [{"compound": "CCOc1ccccc1S(=O)(=O)N(CP(C)(C)=O)c1cc(C)cc(OCCNc2ccnnc2)c1", "note": "[Example 7]", "values": [{"measurement": "TT0.5 (thrombin time, difference to the control)", "setting": "horse thrombin", "result": 14, "unit": "s"}, {"measurement": "TT5 (thrombin time, difference to the control)", "setting": "horse thrombin", "result": 109, "unit": "s"}, {"measurement": "Ki", "setting": "human α thrombin", "result": 0.06, "unit": "µM"}]}, {"compound": "CCCCCCOc1ccccc1S(=O)(=O)N(CP(C)(C)=O)c1cc(C)cc(OCCNc2ccncc2)c1", "note": "[Example 4, N-(Dimethyloxophosphinylmethyl)-N-{3-methyl-5-[2-(pyridin-4-ylamino)-ethoxyl]-phenyl}-2-hexyloxy-benzene-sulfonamide]", "values": [{"measurement": "TT0.5 (thrombin time, difference to the control)", "setting": "horse thrombin", "result": 11, "unit": "s"}, {"measurement": "TT5 (thrombin time, difference to the control)", "setting": "horse thrombin", "result": 113, "unit": "s"}, {"measurement": "Ki", "setting": "human α thrombin", "result": 0.012, "unit": "µM"}]}, {"compound": "Cc1cc(OCCNc2ccncc2)cc(N(CP(C)(C)=O)S(=O)(=O)c2ccccc2)c1", "note": "[Example 1, N-(Dimethyloxophosphinylmethyl)-N-{3-methyl-5-[2-(pyridin-4-ylamino)-ethoxyl]-phenyl}-benzene sulfonamide]", "values": [{"measurement": "TT0.5 (thrombin time, difference to the control)", "setting": "horse thrombin", "result": 33, "unit": "s"}, {"measurement": "TT5 (thrombin time, difference to the control)", "setting": "horse thrombin", "result": 175, "unit": "s"}, {"measurement": "Ki", "setting": "human α thrombin", "result": 0.1, "unit": "µM"}]}, {"compound": "Cc1cc(OCCNc2ccnnc2)cc(N(CP(C)(C)=O)S(=O)(=O)c2ccccc2OC(C)C)c1", "note": "[Example 8]", "values": [{"measurement": "TT0.5 (thrombin time, difference to the control)", "setting": "horse thrombin", "result": 47, "unit": "s"}, {"measurement": "TT5 (thrombin time, difference to the control)", "setting": "horse thrombin", "result": 180, "unit": "s"}, {"measurement": "Ki", "setting": "human α thrombin", "result": 0.035, "unit": "µM"}]}, {"compound": "CCCOc1ccccc1S(=O)(=O)N(CP(C)(C)=O)c1cc(C)cc(OCCNc2ccnnc2)c1", "note": "[Example 6]", "values": [{"measurement": "TT0.5 (thrombin time, difference to the control)", "setting": "horse thrombin", "result": 18, "unit": "s"}, {"measurement": "TT5 (thrombin time, difference to the control)", "setting": "horse thrombin", "result": 122, "unit": "s"}, {"measurement": "Ki", "setting": "human α thrombin", "result": 0.028, "unit": "µM"}]}, {"compound": "CCCCOc1ccccc1S(=O)(=O)N(CP(C)(C)=O)c1cc(C)cc(OCCNc2ccncc2)c1", "note": "[Example 3, N-(Dimethyloxophosphinylmethyl)-N-{3-methyl-5-[2-(pyridin-4-ylamino)-ethoxyl]-phenyl}-2-butoxy-benzene-sulfonamide]", "values": [{"measurement": "TT0.5 (thrombin time, difference to the control)", "setting": "horse thrombin", "result": 50, "unit": "s"}, {"measurement": "TT5 (thrombin time, difference to the control)", "setting": "horse thrombin", "result": 300, "unit": "s"}, {"measurement": "Ki", "setting": "human α thrombin", "result": 0.004, "unit": "µM"}]}, {"compound": "COc1ccccc1S(=O)(=O)N(CP(C)(C)=O)c1cc(C)cc(OCCNc2ccncc2)c1", "note": "[Example 2, N-(Dimethyloxophosphinvlmethyl)-N-{3-methyl-5-[2-(pyridin-4-ylamino)-ethoxyl]-phenyl}-2-methoxy-benzene-sulfonamide]", "values": [{"measurement": "TT0.5 (thrombin time, difference to the control)", "setting": "horse thrombin", "result": 115, "unit": "s"}, {"measurement": "TT5 (thrombin time, difference to the control)", "setting": "horse thrombin", "result": 300, "unit": "s"}, {"measurement": "Ki", "setting": "human α thrombin", "result": 0.008, "unit": "µM"}]}]}
